Laboratory results as given in patent US5219884A, “Immunosuppressant” (Taito Co., Ltd., priority 1990, dated 1993).
In brackets after ≈: the same amount, converted by molar mass. Like-named read-outs stand apart in the source and are kept apart here.

Tests used:
[1] = body weight, wet weight of thymus and spleen, number of spleen cells in SRBC-immunized mice; format: in vivo, mouse
Description: Males 5- to 7-week-old BALB/c mice were immunized with sheep red blood cells (SRBC), and the spleen was resected three or four days later. By counting the plaque forming cells (PFC), suppressive effect on the production of the anti-sheep red blood cell antibody was examined as follows.
(§1) BALB/c mice were immunized with SRBC (1×10^7 cells/mouse, intravenous administration), and ISP-I in the Example 1 was administered intraperitoneally for 4 consecutive days from the day of immunization. Four days after immunization (the next day of the final administration), the spleen was resected and the anti-sheep red blood cell antibody-producing cells were determined by the direct plaque method. At the same time the body weight of the mouse, wet weight of the thymus and the spleen, and numbers of spleen cells were also determined.
as §1, with “(5×10^7” for “(1×10^7”, “the compound” for “ISP-I”, “5” for “1”, “resected,” for “resected”, “time,” for “time”

[2] = tested on: human allogenic MLR (peripheral blood lymphocytes); assay: human allogenic MLR-suppressive activity; format: cell-based; details: for inhibition at 0.0001 µg/mL / inhibition at 0.001 µg/mL / inhibition at 0.01 µg/mL / inhibition at 0.1 µg/mL / inhibition at 1 µg/mL / inhibition at 10 pg/mL / inhibition at 10 µg/mL / IC50: Lymphocyte; for inhibition at 0.0001 µg/mL / inhibition at 0.001 µg/mL / inhibition at 0.01 µg/mL / inhibition at 0.1 µg/mL / inhibition at 1 µg/mL / inhibition at 10 pg/mL / inhibition at 10 µg/mL: read-out: Suppression; for IC50: read-out: 50%-inhibition concentration (IC50)
Description: The human allogenic MLR-suppressive activity was assayed as follows:
Human peripheral blood lymphocytes obtained by Ficoll-Paque density gradient centrifugation of normal human peripheral blood were suspended in the RPMI1640 medium supplemented with 10% FCS, placed in plastic dishes, and incubated at 37° C. in an atmosphere of 5% carbon dioxide for 2 hours. After termination of incubation, the supernatant after gentle pipetting was harvested and centrifuged (1000 rpm, for 5 minutes) to obtain plastic-nonadherent cells. The plastic-nonadherent cells were allowed to pass through a nylon-wool column to give nylon-nonadherent cells, and the concentration of the cell suspension was adjusted to 4×10^6 cells/ml by using the RPMI1640 culture medium supplemented with 10% FCS, and used as the responder cell suspension.
The plastic-adherent cells were removed from the plastic dish by vigorous pipetting after addition of phosphate buffered saline supplemented with 5% FCS and 0.02% disodium ethylenediamine-tetraacetic acid (EDTA). The plastic-adherent cells were treated with 40 μg/ml of mitomycin C at 37° C. for 60 minutes, washed three times, and suspended to the concentration of 4×10^6 cells/ml in the RPMI1640 culture medium supplemented with 10% FCS. The resultant suspension was used as the stimulator cell suspension. Fifty μl of the responder cell suspension from the donor A or C was mixed with 50 μl of the stimulator cell suspension from the donor B or D, to which 100 μl of the test substance was added, and cultured at 37° C. in the an atmosphere 5% carbon dioxide for 5 days.
After termination of the culture, 1.0 μCi/well of ^3 H-thymidine was added, and after 18 hours of culture, the cells were harvested by a cell-harvester. The radioactivity incorporated into the cells was measured by a liquid scintillation counter as the index of blastogenic response of lymphocytes in human allogenic MLR. The suppression of human allogenic MLR was evaluated by calculating the percent suppression by the following formula. [formula]

[3] = tested on: mouse allogenic mixed lymphocyte reaction (BALB/c responder, C57BL/6 stimulator spleen cells); assay: mouse allogenic mixed lymphocyte reaction (MLR), blastogenesis by 3H-thymidine uptake; format: cell-based
Description: The immunosuppressive activity of the compounds (I) and their lactones was assayed by using mouse allogenic mixed lymphocyte reaction (hereinafter sometimes abbreviated as MLR). Mouse allogenic MLR was carried out by mixed culture of the BALB/c mouse (H-2^d) spleen cells as the responder cells and the mitomycin C-treated C57BL/6 (H-2^b) spleen cells as the stimulator cells in equal amounts.
The responder cells were prepared as follows: The spleen was resected from 5- to 6-week-old male BALB/c mice, and single cell suspension of spleen cells was prepared by using the RPMI1640 culture medium (containing 60 μg/ml of kanamycin sulfate, 2 mM of L-glutamine, 10 mM of N-2-hydroxyethylpiperazine-N'-2-ethanesulfonate (HEPES) and 0.1% sodium hydrogencarbonate) to which heat-inactivated fetal calf serum (hereinaftersometimes abbreviated as FCS) had been added to 5%. After hemolytic treatment, the cell suspension was adjusted to a concentration of 10^7 cells/ml by using the RPMI1640 culture medium supplemented with 10^-4 M 2-mercaptoethanol and 20% FCS, and was used as the responder cell suspension.
The stimulator cells were prepared as follows:
The spleen was resected from 5- to 6-week-old male C57BL/6 mice, and single cell suspension of spleen cells was prepared by using the RPMI1640 culture medium. After hemolytic treatment, the cells were treated with 40 μg/ml of mitomycin C at 37° C. for 60 minutes. After washing three times, the concentration of the cell suspension was adjusted to 10^7 cells/ ml by using the RPMI1640 culture medium supplemented with 10^-4 M 2-mercaptoethanol and 20% FCS, and was used as the stimulator cell suspension.
Fifty μl of the responder cell suspension, 50μl of the stimulator cell suspension prepared by the above method, and 100 μl of the test substance were placed in 96-well microculture plates, and were cultured at 37° C. in an atmosphere of 5% carbon dioxide for 4 days.
The blastogenesis of lymphocytes was assayed by a method of ^3 H-thymidine uptake as an index. That is, after termination of the culture, 0.5 μCi/well of ^3 H-thymidine was added and cultured for 4 hours. Cells were harvested by a cell-harvester, and the radioactivity incorporated into the cells was determined by a liquid scintillation counter to obtain the index of blastogenesis of lymphocytes in the mouse allogenic MLR. The suppression of the mouse allogenic MLR was evaluated by calculating the percent suppression by the following formula. [formula]
The test substance was dissolved in methanol or suspended in a mixture of methanol and acetic acid, and then diluted with the RPMI1640 culture medium.

[4] = Homo sapiens, donor A/donor B, 0.0001 μg/ml
[5] = Homo sapiens, donor A/donor B, 0.001 μg/ml
[6] = Homo sapiens, donor A/donor B, 0.01 μg/ml
[7] = Homo sapiens, donor A/donor B, 0.1 μg/ml
[8] = Homo sapiens, donor A/donor B, 1 μg/ml
[9] = Homo sapiens, donor C/donor D, 0.00001 μg/ml
[10] = Homo sapiens, donor C/donor D, 0.0001 μg/ml
[11] = Homo sapiens, donor C/donor D, 0.001 μg/ml
[12] = Homo sapiens, donor C/donor D, 0.01 μg/ml
[13] = Homo sapiens, donor C/donor D, 0.1 μg/ml
[14] = Homo sapiens, donor C/donor D, 1 μg/ml
[15] = Mus musculus, Lymphocyte, read-out: Suppression

## CCCCCCC(=O)CCCCCC/C=C/CC(O)C(O)C(N)(CO)C(=O)O (centres unmarked) [Example 1]
[1]; Experiment 1, 0.3 mg/kg/day
  Number of spleen cells: 1.4 ± 0.3 × 10^8 cell
[1]; Experiment 1, 1 mg/kg/day
  Number of spleen cells: 1.3 ± 0.4 × 10^8 cell
[1]; Experiment 1, 3 mg/kg/day
  Number of spleen cells: 1.3 ± 0.2 × 10^8 cell
[1]; mouse, in vivo, 0.3 mg/kg/day
  Body weight: 23 ± 2 g
  Wet weight spleen: 202 ± 4 mg
  Wet weight thymus: 48 ± 5 mg
[1]; mouse, in vivo, 1 mg/kg/day
  Body weight: 23 ± 1 g
  Wet weight spleen: 206 ± 32 mg
  Wet weight thymus: 50 ± 1 mg
[1]; mouse, in vivo, 3 mg/kg/day
  Body weight: 19 ± 1 g
  Wet weight spleen: 137 ± 17 mg
  Wet weight thymus: 25 ± 14 mg
[2]; [4]
  inhibition at 0.0001 µg/mL: 51.8%
[2]; [5]
  inhibition at 0.001 µg/mL: 77.7%
[2]; [6]
  inhibition at 0.01 µg/mL: 73.3%
[2]; [7]
  inhibition at 0.1 µg/mL: 79%
[2]; [8]
  inhibition at 1 µg/mL: 80.1%
[2]; [9]
  inhibition at 10 pg/mL: 37.7%
[2]; [10]
  inhibition at 0.0001 µg/mL: 44%
[2]; [11]
  inhibition at 0.001 µg/mL: 67.9%
[2]; [12]
  inhibition at 0.01 µg/mL: 74.8%
[2]; [13]
  inhibition at 0.1 µg/mL: 79.2%
[2]; [14]
  inhibition at 1 µg/mL: 76.5%
[2]; Homo sapiens, donor C/donor D, 10 μg/ml
  inhibition at 10 µg/mL: 88.8%
[2]; Homo sapiens
  IC50: 0.1 ng/mL (≈ 0.249 nM)
  inhibition at 10 µg/mL: 100%
[2]; donor A/donor B, 0.0001 μg/ml
  3H-thymidine uptake: 12769 cpm
[2]; donor A/donor B, 0.001 μg/ml
  3H-thymidine uptake: 7190 cpm
[2]; donor A/donor B, 0.01 μg/ml
  3H-thymidine uptake: 8138 cpm
[2]; donor A/donor B, 0.1 μg/ml
  3H-thymidine uptake: 6922 cpm
[2]; donor A/donor B, 1 μg/ml
  3H-thymidine uptake: 6690 cpm
[2]; donor A/donor B, 10 μg/ml
  3H-thymidine uptake: 1082 cpm
[2]; donor C/donor D, 0.00001 μg/ml
  3H-thymidine uptake: 10896 cpm
[2]; donor C/donor D, 0.0001 μg/ml
  3H-thymidine uptake: 9806 cpm
[2]; donor C/donor D, 0.001 μg/ml
  3H-thymidine uptake: 5646 cpm
[2]; donor C/donor D, 0.01 μg/ml
  3H-thymidine uptake: 4460 cpm
[2]; donor C/donor D, 0.1 μg/ml
  3H-thymidine uptake: 3613 cpm
[2]; donor C/donor D, 1 μg/ml
  3H-thymidine uptake: 4167 cpm
[2]; donor C/donor D, 10 μg/ml
  3H-thymidine uptake: 2018 cpm
[3]; 0.001 μg/ml
  3H-thymidine uptake: 14760 cpm
[3]; 0.01 μg/ml
  3H-thymidine uptake: 6436 cpm
[3]; 0.1 μg/ml
  3H-thymidine uptake: 686 cpm
[3]; 1 μg/ml
  3H-thymidine uptake: 698 cpm
[3]; Mus musculus, Lymphocyte, read-out: 50%-inhibition concentration (IC50)
  IC50: 7.1 ng/mL (≈ 17.7 nM)
[3]; [15]
  inhibition at 0.001 µg/mL: 0%
  inhibition at 0.01 µg/mL: 59.2%
  inhibition at 0.1 µg/mL: 100%
  inhibition at 1 µg/mL: 100%

## CCCCCCC(=O)CCCCCCCCCC(O)C(O)C(N)(CO)C(=O)O (centres unmarked) [Example 5]
[1]; Experiment 2, 10 mg/kg/day
  Body weight: 24 ± 1 g
  Number of spleen cells: 2.3 ± 0.3 × 10^8 cell
  Wet weight spleen: 239 ± 40 mg
  Wet weight thymus: 52 ± 5 mg
[2]; [4]
  inhibition at 0.0001 µg/mL: 14.4%
[2]; [5]
  inhibition at 0.001 µg/mL: 42.8%
[2]; [6]
  inhibition at 0.01 µg/mL: 59.4%
[2]; [7]
  inhibition at 0.1 µg/mL: 87.1%
[2]; [8]
  inhibition at 1 µg/mL: 85.4%
[2]; Homo sapiens, donor A/donor B, 10 μg/ml
  inhibition at 10 µg/mL: 99.8%
[2]; [9]
  inhibition at 10 pg/mL: 32.3%
[2]; [10]
  inhibition at 0.0001 µg/mL: 54.7%
[2]; [11]
  inhibition at 0.001 µg/mL: 48.3%
[2]; [12]
  inhibition at 0.01 µg/mL: 58.1%
[2]; [13]
  inhibition at 0.1 µg/mL: 84.7%
[2]; [14]
  inhibition at 1 µg/mL: 80.5%
[2]; human allogenic MLR
  IC50: 0.35 ng/mL (≈ 0.867 nM)
[2]; donor A/donor B, 0.0001 μg/ml
  3H-thymidine uptake: 20789 cpm
[2]; donor A/donor B, 0.001 μg/ml
  3H-thymidine uptake: 14690 cpm
[2]; donor A/donor B, 0.01 μg/ml
  3H-thymidine uptake: 11130 cpm
[2]; donor A/donor B, 0.1 μg/ml
  3H-thymidine uptake: 5181 cpm
[2]; donor A/donor B, 1 μg/ml
  3H-thymidine uptake: 5548 cpm
[2]; donor A/donor B, 10 μg/ml
  3H-thymidine uptake: 2439 cpm
[2]; donor C/donor D, 0.00001 μg/ml
  3H-thymidine uptake: 11827 cpm
[2]; donor C/donor D, 0.0001 μg/ml
  3H-thymidine uptake: 7941 cpm
[2]; donor C/donor D, 0.001 μg/ml
  3H-thymidine uptake: 9057 cpm
[2]; donor C/donor D, 0.01 μg/ml
  3H-thymidine uptake: 7346 cpm
[2]; donor C/donor D, 0.1 μg/ml
  3H-thymidine uptake: 2746 cpm
[2]; donor C/donor D, 1 μg/ml
  3H-thymidine uptake: 3466 cpm
[3]; 0.001 μg/ml
  3H-thymidine uptake: 22321 cpm
[3]; 0.01 μg/ml
  3H-thymidine uptake: 8182 cpm
[3]; 0.1 μg/ml
  3H-thymidine uptake: 1952 cpm
[3]; Mus musculus, Lymphocyte, 0.001 μg/ml, read-out: Suppression
  inhibition at 0.001 µg/mL: 23.5%
[3]; Mus musculus, Lymphocyte, 0.01 μg/ml, read-out: Suppression
  inhibition at 0.01 µg/mL: 90.6%
[3]; Mus musculus, Lymphocyte, 0.1 μg/ml, read-out: Suppression
  inhibition at 0.1 µg/mL: 100%
